{"source": "paper PMC9133015", "about": "(Nature Communications, 2022)", "test_in_all_cases": "Kinase inhibitor specificity profiling (Reaction Biology Corporation)", "format_in_all_cases": "biochemical", "design_in_all_cases": "% Enzyme Activity (relative to DMSO controls): concentration or dose not given beside the values", "key": {"[1]": {"molecular_target": "T1, panel of 370 protein kinases (Homo sapiens, UniProt O43293)", "T1 construct": "purchased Reaction Biology Corporation (assay service)", "details": "2 h, kinase ZIPK/DAPK3; read-out: % Enzyme Activity (relative to DMSO controls)"}, "[2]": {"molecular_target": "T2, panel of 370 protein kinases (Homo sapiens, UniProt P08069)", "T2 construct": "purchased Reaction Biology Corporation (assay service)", "T2 sequence (P08069 31-1367)": "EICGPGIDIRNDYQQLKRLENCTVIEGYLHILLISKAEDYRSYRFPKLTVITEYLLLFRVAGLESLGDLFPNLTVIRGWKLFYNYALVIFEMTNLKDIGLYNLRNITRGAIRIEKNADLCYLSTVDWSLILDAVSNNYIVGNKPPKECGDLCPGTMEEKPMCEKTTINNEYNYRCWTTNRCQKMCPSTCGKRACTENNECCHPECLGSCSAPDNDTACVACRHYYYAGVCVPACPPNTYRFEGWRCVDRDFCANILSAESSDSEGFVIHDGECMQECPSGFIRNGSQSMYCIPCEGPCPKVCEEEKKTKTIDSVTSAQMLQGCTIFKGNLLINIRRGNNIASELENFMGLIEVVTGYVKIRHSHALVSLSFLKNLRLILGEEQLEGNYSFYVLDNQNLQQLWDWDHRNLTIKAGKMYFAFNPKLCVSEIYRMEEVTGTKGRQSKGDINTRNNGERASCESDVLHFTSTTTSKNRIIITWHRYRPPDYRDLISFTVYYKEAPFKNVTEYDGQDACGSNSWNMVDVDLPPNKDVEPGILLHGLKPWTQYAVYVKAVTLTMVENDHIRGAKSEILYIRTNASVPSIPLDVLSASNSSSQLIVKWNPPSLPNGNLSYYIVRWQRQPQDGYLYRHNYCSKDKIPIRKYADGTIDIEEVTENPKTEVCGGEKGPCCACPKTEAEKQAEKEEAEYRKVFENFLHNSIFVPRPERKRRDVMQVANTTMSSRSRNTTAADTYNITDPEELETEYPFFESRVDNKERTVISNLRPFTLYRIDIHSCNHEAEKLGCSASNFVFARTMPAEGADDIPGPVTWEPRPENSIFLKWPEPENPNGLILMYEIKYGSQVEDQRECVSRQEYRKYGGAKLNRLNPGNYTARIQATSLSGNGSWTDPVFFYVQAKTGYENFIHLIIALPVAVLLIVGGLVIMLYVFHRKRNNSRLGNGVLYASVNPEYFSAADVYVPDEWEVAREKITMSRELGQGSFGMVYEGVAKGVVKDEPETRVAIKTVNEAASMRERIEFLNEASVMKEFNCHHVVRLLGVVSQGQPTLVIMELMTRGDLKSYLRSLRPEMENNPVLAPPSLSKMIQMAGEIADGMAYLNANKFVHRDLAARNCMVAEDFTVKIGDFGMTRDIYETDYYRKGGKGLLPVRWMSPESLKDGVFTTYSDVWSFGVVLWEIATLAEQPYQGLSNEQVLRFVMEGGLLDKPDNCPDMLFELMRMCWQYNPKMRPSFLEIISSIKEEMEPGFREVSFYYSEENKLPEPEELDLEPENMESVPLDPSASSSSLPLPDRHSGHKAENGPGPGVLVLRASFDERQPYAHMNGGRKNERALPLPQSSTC", "details": "2 h, kinase IGF1R; read-out: % Enzyme Activity (relative to DMSO controls)"}, "[3]": {"molecular_target": "T3, panel of 370 protein kinases (Homo sapiens, UniProt P32298)", "T3 construct": "purchased Reaction Biology Corporation (assay service)", "details": "2 h, kinase GRK4; read-out: % Enzyme Activity (relative to DMSO controls)"}, "[4]": {"molecular_target": "T4, panel of 370 protein kinases (Homo sapiens, UniProt P36894)", "T4 construct": "purchased Reaction Biology Corporation (assay service)", "T4 sequence (P36894 24-532)": "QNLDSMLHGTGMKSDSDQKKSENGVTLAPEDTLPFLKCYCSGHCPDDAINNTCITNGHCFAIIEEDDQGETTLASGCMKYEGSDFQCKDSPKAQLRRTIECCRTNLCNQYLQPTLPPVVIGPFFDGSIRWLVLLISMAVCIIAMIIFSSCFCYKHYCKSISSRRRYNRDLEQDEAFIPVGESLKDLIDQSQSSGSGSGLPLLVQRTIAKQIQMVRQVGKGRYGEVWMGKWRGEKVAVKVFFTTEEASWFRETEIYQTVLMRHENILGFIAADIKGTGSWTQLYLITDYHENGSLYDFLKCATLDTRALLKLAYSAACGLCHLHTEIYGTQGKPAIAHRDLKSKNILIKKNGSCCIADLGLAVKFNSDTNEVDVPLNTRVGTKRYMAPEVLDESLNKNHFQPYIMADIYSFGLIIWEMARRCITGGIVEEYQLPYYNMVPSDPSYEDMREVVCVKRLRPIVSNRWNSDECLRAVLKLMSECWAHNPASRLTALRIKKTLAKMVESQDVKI", "details": "2 h, kinase ALK3/BMPR1A; read-out: % Enzyme Activity (relative to DMSO controls)"}, "[5]": {"molecular_target": "T5, panel of 370 protein kinases (Homo sapiens, UniProt P42685)", "T5 construct": "purchased Reaction Biology Corporation (assay service)", "details": "2 h, kinase FRK/PTK5; read-out: % Enzyme Activity (relative to DMSO controls)"}, "[6]": {"molecular_target": "T6, panel of 370 protein kinases (Homo sapiens, UniProt P49840)", "T6 construct": "purchased Reaction Biology Corporation (assay service)", "T6 sequence (P49840 whole entry)": "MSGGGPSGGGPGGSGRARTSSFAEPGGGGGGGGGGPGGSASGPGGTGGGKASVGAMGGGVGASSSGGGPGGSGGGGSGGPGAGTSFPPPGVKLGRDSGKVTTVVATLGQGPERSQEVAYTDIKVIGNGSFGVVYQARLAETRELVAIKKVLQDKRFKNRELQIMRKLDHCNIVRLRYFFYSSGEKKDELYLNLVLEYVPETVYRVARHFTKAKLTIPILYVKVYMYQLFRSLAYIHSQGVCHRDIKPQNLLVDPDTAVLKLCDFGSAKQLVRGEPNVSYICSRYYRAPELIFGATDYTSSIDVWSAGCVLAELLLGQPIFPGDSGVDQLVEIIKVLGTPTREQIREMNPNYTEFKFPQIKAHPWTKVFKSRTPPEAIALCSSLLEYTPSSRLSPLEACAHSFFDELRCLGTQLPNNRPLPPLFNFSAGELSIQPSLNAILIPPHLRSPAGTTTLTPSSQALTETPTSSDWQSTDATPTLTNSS", "details": "2 h, kinase GSK3a; read-out: % Enzyme Activity (relative to DMSO controls)"}, "[7]": {"molecular_target": "T7, panel of 370 protein kinases (Homo sapiens, UniProt P53778)", "T7 construct": "purchased Reaction Biology Corporation (assay service)", "details": "2 h, kinase P38g; read-out: % Enzyme Activity (relative to DMSO controls)"}, "[8]": {"molecular_target": "T8, panel of 370 protein kinases (Homo sapiens, UniProt P80192)", "T8 construct": "purchased Reaction Biology Corporation (assay service)", "details": "2 h, kinase MLK1/MAP3K9; read-out: % Enzyme Activity (relative to DMSO controls)"}, "[9]": {"molecular_target": "T9, panel of 370 protein kinases (Homo sapiens, UniProt Q12851)", "T9 construct": "purchased Reaction Biology Corporation (assay service)", "T9 sequence (Q12851 whole entry)": "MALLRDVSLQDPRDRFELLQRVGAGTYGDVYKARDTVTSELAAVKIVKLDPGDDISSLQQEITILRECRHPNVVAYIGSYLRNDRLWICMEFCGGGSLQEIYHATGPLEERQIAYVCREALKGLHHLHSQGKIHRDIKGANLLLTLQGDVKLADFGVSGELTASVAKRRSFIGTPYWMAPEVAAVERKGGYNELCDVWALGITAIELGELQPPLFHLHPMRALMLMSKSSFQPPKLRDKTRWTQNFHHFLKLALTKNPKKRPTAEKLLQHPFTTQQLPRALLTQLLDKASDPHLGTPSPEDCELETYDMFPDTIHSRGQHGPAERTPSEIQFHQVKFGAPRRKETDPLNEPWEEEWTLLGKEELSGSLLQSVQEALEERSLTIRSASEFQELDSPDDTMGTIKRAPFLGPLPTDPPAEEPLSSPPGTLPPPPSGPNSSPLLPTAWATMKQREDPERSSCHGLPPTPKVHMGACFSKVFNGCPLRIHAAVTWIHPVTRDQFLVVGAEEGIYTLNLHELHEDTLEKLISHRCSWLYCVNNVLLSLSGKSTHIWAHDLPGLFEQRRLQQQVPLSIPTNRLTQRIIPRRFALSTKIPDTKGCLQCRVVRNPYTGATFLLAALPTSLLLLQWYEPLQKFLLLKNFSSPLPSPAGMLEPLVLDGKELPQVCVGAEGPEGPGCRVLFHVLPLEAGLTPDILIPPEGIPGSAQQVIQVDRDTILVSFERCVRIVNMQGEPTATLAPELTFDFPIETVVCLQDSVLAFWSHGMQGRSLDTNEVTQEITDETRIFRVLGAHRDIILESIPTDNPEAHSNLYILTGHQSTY", "details": "2 h, kinase GCK/MAP4K2; read-out: % Enzyme Activity (relative to DMSO controls)"}, "[10]": {"molecular_target": "T10, panel of 370 protein kinases (Homo sapiens, UniProt Q13557)", "T10 construct": "purchased Reaction Biology Corporation (assay service)", "T10 sequence (Q13557 whole entry)": "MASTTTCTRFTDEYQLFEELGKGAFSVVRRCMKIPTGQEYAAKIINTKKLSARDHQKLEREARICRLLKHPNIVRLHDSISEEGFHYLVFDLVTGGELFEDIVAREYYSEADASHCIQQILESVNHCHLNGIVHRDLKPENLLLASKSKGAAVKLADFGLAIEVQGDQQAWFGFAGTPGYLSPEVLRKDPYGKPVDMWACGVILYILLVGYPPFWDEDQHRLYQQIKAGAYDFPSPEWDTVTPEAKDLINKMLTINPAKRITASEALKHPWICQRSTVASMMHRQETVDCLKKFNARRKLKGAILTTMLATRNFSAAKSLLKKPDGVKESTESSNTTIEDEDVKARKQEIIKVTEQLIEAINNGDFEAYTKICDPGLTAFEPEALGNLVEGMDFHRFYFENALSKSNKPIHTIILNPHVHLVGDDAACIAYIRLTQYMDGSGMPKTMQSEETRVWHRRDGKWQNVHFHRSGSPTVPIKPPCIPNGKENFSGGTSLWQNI", "details": "2 h, kinase CAMK2d; read-out: % Enzyme Activity (relative to DMSO controls)"}, "[11]": {"molecular_target": "T11, panel of 370 protein kinases (Homo sapiens, UniProt Q16288)", "T11 construct": "purchased Reaction Biology Corporation (assay service)", "details": "2 h, kinase TRKC; read-out: % Enzyme Activity (relative to DMSO controls)"}, "[12]": {"molecular_target": "T12, panel of 370 protein kinases (Homo sapiens, UniProt Q32MK0)", "T12 construct": "purchased Reaction Biology Corporation (assay service)", "details": "2 h, kinase MYLK3; read-out: % Enzyme Activity (relative to DMSO controls)"}, "[13]": {"molecular_target": "T13, panel of 370 protein kinases (Homo sapiens, UniProt Q6P3R8)", "T13 construct": "purchased Reaction Biology Corporation (assay service)", "details": "2 h, kinase NEK5; read-out: % Enzyme Activity (relative to DMSO controls)"}, "[14]": {"molecular_target": "T14, panel of 370 protein kinases (Homo sapiens, UniProt Q6PHR2)", "T14 construct": "purchased Reaction Biology Corporation (assay service)", "T14 sequence (Q6PHR2 whole entry)": "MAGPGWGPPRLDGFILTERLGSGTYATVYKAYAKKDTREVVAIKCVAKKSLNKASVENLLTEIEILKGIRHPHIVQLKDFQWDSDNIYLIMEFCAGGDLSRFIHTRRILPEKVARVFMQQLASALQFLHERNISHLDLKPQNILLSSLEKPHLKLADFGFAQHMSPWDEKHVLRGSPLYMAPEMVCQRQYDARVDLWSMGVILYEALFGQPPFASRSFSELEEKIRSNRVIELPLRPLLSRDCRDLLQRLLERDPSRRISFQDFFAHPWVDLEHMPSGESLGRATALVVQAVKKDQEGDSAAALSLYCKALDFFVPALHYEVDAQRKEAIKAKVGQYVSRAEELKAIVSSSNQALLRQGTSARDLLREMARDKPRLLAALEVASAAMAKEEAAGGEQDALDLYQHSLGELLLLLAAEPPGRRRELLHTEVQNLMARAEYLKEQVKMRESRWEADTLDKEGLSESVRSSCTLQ", "details": "kinase ULK3"}, "[15]": {"molecular_target": "T15, panel of 370 protein kinases (Homo sapiens, UniProt Q8N5S9)", "T15 construct": "purchased Reaction Biology Corporation (assay service)", "details": "2 h, kinase CAMKK1; read-out: % Enzyme Activity (relative to DMSO controls)"}, "[16]": {"molecular_target": "T16, panel of 370 protein kinases (Homo sapiens, UniProt Q9BXA7)", "T16 construct": "purchased Reaction Biology Corporation (assay service)", "details": "2 h, kinase STK22D/TSSK1; read-out: % Enzyme Activity (relative to DMSO controls)"}, "[17]": {"molecular_target": "T17, panel of 370 protein kinases (Homo sapiens, UniProt Q9H2K8)", "T17 construct": "purchased Reaction Biology Corporation (assay service)", "details": "2 h, kinase TAOK3/JIK; read-out: % Enzyme Activity (relative to DMSO controls)"}, "[18]": {"molecular_target": "T18, panel of 370 protein kinases (Homo sapiens, UniProt Q9NYY3)", "T18 construct": "purchased Reaction Biology Corporation (assay service)", "T18 sequence (Q9NYY3 whole entry)": "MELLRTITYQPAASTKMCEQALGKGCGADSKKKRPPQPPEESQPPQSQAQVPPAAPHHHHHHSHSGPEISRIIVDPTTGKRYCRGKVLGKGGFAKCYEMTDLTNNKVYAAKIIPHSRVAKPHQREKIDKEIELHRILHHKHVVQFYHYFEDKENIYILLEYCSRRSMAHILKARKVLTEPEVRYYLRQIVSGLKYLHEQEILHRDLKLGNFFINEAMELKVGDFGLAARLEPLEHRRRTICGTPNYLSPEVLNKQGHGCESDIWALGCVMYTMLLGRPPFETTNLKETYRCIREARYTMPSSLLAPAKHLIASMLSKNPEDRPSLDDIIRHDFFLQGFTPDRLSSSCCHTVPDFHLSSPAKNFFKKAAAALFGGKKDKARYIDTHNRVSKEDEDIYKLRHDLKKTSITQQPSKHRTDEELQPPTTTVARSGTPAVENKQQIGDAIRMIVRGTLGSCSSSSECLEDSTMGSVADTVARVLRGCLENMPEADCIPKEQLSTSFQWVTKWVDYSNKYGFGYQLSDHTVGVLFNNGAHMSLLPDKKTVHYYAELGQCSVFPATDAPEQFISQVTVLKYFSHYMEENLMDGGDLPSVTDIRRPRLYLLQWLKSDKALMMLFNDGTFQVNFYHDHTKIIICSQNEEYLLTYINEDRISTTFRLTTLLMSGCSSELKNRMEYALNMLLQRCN", "details": "kinase PLK2"}, "[19]": {"molecular_target": "T19, panel of 370 protein kinases (Homo sapiens, UniProt Q9UBE8)", "T19 construct": "purchased Reaction Biology Corporation (assay service)", "details": "2 h, kinase NLK; read-out: % Enzyme Activity (relative to DMSO controls)"}, "[20]": {"molecular_target": "T20, panel of 370 protein kinases (Homo sapiens, UniProt Q9UQB9)", "T20 construct": "purchased Reaction Biology Corporation (assay service)", "details": "2 h, kinase AURORA C; read-out: % Enzyme Activity (relative to DMSO controls)"}, "[21]": {"molecular_target": "T21, panel of 370 protein kinases (Homo sapiens, UniProt Q9Y2U5)", "T21 construct": "purchased Reaction Biology Corporation (assay service)", "details": "2 h, kinase MEKK2; read-out: % Enzyme Activity (relative to DMSO controls)"}}, "note": "Several values for one entry are separate records, joined by “and”; a condition that tells them apart may be missing. Equal entries are not always repeated."}
{"molecule": "CCN1CCN(C(=O)c2ccc(Nc3ncc(F)c(-c4ccc5nc(N(C)C)sc5c4)n3)nc2)CC1", "note": "[YK-2-69]", "values": [{"measurement": "remaining activity at 1 µM", "setting": "[1]", "result": 67.1, "unit": "%"}, {"measurement": "remaining activity at 1 µM", "setting": "[2]", "result": 102, "unit": "%"}, {"measurement": "remaining activity at 1 µM", "setting": "[3]", "result": 95.1, "unit": "%"}, {"measurement": "remaining activity at 1 µM", "setting": "[4]", "result": 168, "unit": "%"}, {"measurement": "remaining activity at 1 µM", "setting": "[5]", "result": 108, "unit": "%"}, {"measurement": "remaining activity at 1 µM", "setting": "[6]", "result": 42.3, "unit": "%"}, {"measurement": "remaining activity at 1 µM", "setting": "[7]", "result": 98.1, "unit": "%"}, {"measurement": "remaining activity at 1 µM", "setting": "[8]", "result": 111, "unit": "%"}, {"measurement": "remaining activity at 1 µM", "setting": "[9]", "result": 96, "unit": "%"}, {"measurement": "remaining activity at 1 µM", "setting": "[10]", "result": 92.8, "unit": "%"}, {"measurement": "remaining activity at 1 µM", "setting": "[11]", "result": 77.7, "unit": "%"}, {"measurement": "remaining activity at 1 µM", "setting": "[12]", "result": 85.9, "unit": "%"}, {"measurement": "remaining activity at 1 µM", "setting": "[13]", "result": 72.1, "unit": "%"}, {"measurement": "% Enzyme Activity (relative to DMSO controls)", "setting": "[14]", "result": "97.12% and 96.24%"}, {"measurement": "remaining activity at 1 µM", "setting": "[15]", "result": 95.7, "unit": "%"}, {"measurement": "remaining activity at 1 µM", "setting": "[16]", "result": 91.2, "unit": "%"}, {"measurement": "remaining activity at 1 µM", "setting": "[17]", "result": 104, "unit": "%"}, {"measurement": "% Enzyme Activity (relative to DMSO controls)", "setting": "[18]", "result": "98.55% and 92.68%"}, {"measurement": "remaining activity at 1 µM", "setting": "[19]", "result": 97, "unit": "%"}, {"measurement": "remaining activity at 1 µM", "setting": "[20]", "result": 94.7, "unit": "%"}, {"measurement": "remaining activity at 1 µM", "setting": "[21]", "result": 113, "unit": "%"}]}
